Laboratory results as given in publication PMC9030254, “Target Hopping from Protein Kinases to PXR: Identification of Small-Molecule Protein Kinase Inhibitors as Selective Modulators of Pregnane X Receptor from TüKIC Library” (Cells, 2022).

Columns and labels:
Experiment in all cases: Kinase profiling
Assay type in all cases: biochemical
NIK = target: T1, NIK (Homo sapiens, UniProt Q99558)
T1 construct: purchased ProQinase (Freiburg, Germany)
Method: (§1) The analysis was performed by ProQinase (Freiburg, Germany).

TTBK1 = target: T2, TTBK1 (Homo sapiens, UniProt Q5TCY1)
T2 construct: purchased ProQinase (Freiburg, Germany)
T2 sequence (Q5TCY1 whole entry): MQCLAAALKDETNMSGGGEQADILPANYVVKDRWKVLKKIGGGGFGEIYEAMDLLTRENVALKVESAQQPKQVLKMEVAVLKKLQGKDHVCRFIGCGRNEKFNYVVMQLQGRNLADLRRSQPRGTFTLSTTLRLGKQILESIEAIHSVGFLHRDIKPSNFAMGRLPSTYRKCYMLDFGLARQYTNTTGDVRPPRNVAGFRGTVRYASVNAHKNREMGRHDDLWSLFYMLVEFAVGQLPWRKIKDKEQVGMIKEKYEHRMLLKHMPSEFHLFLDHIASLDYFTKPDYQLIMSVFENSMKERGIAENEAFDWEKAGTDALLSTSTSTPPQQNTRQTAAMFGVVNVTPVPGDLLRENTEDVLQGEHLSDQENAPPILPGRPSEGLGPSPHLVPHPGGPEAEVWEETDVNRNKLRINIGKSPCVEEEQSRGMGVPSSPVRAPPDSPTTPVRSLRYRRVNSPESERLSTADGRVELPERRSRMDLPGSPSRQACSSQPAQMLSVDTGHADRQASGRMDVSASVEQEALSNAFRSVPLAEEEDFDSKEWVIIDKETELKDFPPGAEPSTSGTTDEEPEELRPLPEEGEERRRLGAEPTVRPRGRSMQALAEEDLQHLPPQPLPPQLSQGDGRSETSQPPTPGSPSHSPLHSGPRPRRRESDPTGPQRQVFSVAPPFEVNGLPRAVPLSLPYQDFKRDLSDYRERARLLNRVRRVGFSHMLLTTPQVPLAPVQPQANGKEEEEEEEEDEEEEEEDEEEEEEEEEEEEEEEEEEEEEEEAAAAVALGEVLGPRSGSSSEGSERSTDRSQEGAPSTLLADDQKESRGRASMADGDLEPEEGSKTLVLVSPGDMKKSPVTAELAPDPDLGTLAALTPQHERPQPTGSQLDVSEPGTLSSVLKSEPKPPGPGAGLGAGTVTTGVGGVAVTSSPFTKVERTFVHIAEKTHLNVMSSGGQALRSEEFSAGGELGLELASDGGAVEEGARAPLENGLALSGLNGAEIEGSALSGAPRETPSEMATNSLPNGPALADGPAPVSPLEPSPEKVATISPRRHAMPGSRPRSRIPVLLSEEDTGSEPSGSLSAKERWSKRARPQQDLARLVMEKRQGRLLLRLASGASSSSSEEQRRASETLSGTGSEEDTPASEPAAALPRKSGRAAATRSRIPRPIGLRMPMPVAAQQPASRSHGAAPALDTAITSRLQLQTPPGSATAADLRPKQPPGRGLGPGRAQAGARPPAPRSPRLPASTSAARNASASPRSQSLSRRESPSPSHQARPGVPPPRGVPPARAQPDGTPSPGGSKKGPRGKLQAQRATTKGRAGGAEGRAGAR
Method: as §1

PKCeta = target: T3, PKCeta (Homo sapiens, UniProt P24723)
T3 construct: purchased ProQinase (Freiburg, Germany)
Method: as §1

EIF2AK2 = target: T4, EIF2AK2 (Homo sapiens, UniProt P19525)
T4 construct: purchased ProQinase (Freiburg, Germany)
Method: as §1

MEK5 = target: T5, MEK5 (Homo sapiens, UniProt Q13163)
T5 construct: purchased ProQinase (Freiburg, Germany)
T5 sequence (Q13163 1-448): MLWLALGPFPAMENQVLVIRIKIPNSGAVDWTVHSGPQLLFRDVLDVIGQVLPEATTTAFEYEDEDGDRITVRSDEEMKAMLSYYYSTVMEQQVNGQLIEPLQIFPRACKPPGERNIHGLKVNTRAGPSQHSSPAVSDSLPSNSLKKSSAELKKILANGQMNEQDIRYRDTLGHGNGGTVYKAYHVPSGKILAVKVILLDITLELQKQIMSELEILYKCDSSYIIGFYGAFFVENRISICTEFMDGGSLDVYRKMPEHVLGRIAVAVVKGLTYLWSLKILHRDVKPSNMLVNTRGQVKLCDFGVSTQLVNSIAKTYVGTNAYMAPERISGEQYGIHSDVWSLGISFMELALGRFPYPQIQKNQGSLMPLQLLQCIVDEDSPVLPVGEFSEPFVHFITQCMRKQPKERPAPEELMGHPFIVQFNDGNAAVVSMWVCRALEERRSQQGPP
Method: as §1

PIM1 = target: T6, PIM1 (Homo sapiens, UniProt P11309)
T6 construct: purchased ProQinase (Freiburg, Germany)
Method: as §1

CDK3/CycE1 = target: T7, CDK3/CycE1 (Homo sapiens, UniProt Q00526)
T7 construct: purchased ProQinase (Freiburg, Germany)
T7 sequence (Q00526 whole entry): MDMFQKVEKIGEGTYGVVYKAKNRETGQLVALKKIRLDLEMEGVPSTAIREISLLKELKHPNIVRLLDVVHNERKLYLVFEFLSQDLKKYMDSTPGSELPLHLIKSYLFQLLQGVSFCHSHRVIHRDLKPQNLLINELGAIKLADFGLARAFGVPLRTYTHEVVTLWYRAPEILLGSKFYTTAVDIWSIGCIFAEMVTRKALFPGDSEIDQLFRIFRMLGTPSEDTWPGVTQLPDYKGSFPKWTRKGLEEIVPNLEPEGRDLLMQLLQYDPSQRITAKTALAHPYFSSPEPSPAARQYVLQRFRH
T7 sequence (P24864 whole entry partner): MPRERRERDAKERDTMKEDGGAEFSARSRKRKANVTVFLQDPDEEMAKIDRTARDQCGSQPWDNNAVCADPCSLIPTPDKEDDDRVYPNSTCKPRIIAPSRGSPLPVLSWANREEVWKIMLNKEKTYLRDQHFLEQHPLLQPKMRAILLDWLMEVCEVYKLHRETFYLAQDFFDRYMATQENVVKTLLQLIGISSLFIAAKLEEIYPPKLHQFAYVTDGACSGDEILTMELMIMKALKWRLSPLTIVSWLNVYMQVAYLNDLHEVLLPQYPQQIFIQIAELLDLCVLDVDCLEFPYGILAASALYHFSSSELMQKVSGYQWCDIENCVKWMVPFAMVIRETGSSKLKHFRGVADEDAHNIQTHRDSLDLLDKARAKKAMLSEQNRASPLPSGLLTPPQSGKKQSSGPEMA
Method: as §1

MAP3K11 = target: T8, MAP3K11 (Homo sapiens, UniProt Q16584)
T8 construct: purchased ProQinase (Freiburg, Germany)
T8 sequence (Q16584 whole entry): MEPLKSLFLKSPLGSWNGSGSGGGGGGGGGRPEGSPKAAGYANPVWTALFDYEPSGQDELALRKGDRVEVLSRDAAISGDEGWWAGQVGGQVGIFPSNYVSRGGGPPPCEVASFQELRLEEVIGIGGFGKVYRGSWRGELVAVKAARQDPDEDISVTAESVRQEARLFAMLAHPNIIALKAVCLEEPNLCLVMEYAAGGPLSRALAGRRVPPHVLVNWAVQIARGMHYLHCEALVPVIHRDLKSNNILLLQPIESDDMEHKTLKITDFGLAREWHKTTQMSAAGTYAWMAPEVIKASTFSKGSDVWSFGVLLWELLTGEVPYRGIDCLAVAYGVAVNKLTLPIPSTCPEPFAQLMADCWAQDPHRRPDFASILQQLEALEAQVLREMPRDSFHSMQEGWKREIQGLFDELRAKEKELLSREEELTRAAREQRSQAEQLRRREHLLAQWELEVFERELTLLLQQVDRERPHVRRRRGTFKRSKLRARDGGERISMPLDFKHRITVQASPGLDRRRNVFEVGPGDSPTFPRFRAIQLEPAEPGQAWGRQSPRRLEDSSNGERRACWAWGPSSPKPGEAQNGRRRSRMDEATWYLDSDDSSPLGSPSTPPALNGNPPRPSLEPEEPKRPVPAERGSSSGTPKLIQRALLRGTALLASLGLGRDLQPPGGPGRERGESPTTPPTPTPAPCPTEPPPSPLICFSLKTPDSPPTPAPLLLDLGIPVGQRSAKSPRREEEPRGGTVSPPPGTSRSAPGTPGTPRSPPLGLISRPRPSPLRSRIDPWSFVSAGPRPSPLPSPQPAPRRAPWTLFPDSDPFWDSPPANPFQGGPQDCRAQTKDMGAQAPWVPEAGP
Method: as §1

CK1gamma2 = target: T9, CK1gamma2 (Homo sapiens, UniProt P78368)
T9 construct: purchased ProQinase (Freiburg, Germany)
T9 sequence (P78368 whole entry): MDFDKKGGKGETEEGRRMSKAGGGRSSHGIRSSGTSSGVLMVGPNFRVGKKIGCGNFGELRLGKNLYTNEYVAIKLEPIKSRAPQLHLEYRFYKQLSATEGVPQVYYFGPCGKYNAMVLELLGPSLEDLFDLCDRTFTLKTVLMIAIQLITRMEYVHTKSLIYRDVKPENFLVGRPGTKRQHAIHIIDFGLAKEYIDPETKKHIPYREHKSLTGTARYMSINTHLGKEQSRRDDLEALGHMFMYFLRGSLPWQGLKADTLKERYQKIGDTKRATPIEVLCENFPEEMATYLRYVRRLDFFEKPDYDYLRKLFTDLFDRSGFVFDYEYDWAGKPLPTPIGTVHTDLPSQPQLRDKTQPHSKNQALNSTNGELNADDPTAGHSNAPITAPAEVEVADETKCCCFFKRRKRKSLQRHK
Method: as §1

ERBB4 = target: T10, ERBB4 (Homo sapiens, UniProt Q15303)
T10 construct: purchased ProQinase (Freiburg, Germany)
Method: as §1

DAPK2 = target: T11, DAPK2 (Homo sapiens, UniProt Q9UIK4)
T11 construct: purchased ProQinase (Freiburg, Germany)
T11 sequence (Q9UIK4 whole entry): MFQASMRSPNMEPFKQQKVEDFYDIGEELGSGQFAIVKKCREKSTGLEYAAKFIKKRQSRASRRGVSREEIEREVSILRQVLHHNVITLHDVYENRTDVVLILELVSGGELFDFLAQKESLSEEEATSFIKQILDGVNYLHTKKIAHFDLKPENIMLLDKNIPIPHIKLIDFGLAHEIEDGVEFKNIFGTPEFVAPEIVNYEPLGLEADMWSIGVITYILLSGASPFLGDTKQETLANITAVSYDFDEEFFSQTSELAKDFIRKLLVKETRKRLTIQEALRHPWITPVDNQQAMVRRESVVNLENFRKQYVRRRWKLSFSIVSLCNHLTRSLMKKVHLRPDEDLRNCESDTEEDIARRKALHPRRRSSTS
Method: as §1

IRAK4 = target: T12, IRAK4 (Homo sapiens, UniProt Q9NWZ3)
T12 construct: purchased ProQinase (Freiburg, Germany)
T12 sequence (Q9NWZ3 1-460): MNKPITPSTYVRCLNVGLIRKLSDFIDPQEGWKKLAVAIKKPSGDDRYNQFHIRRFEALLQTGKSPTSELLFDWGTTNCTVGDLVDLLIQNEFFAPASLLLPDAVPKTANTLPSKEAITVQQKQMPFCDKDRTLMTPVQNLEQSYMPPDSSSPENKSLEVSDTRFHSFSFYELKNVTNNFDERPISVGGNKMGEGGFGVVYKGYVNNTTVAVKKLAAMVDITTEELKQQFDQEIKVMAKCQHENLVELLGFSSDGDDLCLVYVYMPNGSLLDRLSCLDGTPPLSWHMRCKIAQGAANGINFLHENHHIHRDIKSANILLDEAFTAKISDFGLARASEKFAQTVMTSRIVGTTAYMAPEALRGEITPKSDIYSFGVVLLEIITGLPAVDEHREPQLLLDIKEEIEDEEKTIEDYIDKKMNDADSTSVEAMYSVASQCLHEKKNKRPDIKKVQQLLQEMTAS
Method: as §1

EPHA6 = target: T13, EPHA6 (Homo sapiens, UniProt Q9UF33)
T13 construct: purchased ProQinase (Freiburg, Germany)
T13 sequence (Q9UF33 23-1036): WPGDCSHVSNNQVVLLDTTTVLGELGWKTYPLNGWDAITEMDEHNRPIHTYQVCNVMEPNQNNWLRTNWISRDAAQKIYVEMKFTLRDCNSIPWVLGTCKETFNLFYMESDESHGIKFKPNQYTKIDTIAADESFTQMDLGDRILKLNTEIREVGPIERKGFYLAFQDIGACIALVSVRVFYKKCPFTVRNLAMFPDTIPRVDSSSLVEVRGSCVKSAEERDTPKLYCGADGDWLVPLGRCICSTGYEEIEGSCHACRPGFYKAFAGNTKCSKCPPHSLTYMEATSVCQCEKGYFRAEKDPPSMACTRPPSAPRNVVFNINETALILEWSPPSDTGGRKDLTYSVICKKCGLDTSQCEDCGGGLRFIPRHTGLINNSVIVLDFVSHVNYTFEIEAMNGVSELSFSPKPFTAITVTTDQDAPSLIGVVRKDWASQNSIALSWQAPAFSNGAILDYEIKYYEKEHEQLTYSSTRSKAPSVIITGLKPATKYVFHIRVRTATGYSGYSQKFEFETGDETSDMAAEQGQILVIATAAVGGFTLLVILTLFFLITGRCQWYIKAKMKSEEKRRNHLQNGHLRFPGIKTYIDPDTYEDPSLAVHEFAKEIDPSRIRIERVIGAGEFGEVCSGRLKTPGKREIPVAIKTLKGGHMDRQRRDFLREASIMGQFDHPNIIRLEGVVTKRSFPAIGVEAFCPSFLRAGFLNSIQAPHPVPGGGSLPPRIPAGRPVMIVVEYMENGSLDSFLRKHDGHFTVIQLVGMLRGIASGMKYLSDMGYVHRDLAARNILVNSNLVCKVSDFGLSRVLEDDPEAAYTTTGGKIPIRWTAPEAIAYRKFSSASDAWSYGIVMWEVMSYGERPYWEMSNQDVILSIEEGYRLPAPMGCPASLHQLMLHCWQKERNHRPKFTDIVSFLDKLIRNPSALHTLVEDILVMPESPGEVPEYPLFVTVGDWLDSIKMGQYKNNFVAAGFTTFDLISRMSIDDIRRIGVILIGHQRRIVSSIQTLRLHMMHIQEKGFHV
Method: as §1

MAPKAPK3 = target: T14, MAPKAPK3 (Homo sapiens, UniProt Q16644)
T14 construct: purchased ProQinase (Freiburg, Germany)
T14 sequence (Q16644 whole entry): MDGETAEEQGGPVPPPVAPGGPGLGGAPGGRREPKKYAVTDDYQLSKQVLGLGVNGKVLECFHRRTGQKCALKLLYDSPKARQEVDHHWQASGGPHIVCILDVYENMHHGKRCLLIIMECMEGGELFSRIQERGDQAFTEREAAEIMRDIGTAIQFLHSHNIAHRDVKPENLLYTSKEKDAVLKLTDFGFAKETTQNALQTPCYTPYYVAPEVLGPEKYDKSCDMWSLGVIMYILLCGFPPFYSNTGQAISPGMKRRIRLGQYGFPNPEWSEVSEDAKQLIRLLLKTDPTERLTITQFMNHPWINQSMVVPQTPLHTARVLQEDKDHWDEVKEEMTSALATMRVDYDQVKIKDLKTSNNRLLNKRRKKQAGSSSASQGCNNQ
Method: as §1

T1 sequence (Q99558 whole entry): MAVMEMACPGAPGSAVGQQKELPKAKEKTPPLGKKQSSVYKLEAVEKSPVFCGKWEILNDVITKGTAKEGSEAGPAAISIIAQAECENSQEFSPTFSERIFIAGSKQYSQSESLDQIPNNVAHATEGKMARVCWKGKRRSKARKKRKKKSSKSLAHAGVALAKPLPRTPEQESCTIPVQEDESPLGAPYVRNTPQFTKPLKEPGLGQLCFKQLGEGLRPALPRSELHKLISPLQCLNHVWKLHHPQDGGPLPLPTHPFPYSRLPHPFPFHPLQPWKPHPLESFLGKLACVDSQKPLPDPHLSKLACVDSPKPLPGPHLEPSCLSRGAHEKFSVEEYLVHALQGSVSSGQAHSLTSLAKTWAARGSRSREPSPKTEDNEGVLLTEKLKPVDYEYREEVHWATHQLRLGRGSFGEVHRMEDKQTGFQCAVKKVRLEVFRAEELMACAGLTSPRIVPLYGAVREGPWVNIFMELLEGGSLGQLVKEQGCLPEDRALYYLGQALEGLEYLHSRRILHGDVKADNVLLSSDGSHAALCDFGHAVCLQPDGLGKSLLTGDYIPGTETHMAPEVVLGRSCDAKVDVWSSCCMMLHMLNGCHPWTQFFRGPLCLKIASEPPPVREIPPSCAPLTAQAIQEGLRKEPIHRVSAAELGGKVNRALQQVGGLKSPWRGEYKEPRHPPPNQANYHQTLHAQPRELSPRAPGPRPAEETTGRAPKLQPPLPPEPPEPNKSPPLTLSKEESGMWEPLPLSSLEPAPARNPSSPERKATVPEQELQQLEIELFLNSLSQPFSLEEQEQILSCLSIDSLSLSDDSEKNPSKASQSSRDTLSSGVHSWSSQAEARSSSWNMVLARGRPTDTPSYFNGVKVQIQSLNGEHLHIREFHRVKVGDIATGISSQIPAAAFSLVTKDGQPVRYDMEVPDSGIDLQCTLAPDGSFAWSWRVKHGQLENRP

O=C(Cc1ccccc1)Nc1ccc(F)c(Nc2ccc3c(c2)CCCCC3=O)c1 [Compound 100]
Residual activity (NIK; 1.0E-05 M): 103 % of control
Residual activity (NIK; 1.0E-06 M): 93 % of control
Residual activity (TTBK1; 1.0E-05 M): 126 % of control
Residual activity (TTBK1; 1.0E-06 M): 108 % of control
Residual activity (PKCeta; 1.0E-05 M): 115 % of control
Residual activity (PKCeta; 1.0E-06 M): 116 % of control
Residual activity (EIF2AK2; 1.0E-05 M): 113 % of control
Residual activity (EIF2AK2; 1.0E-06 M): 97 % of control
Residual activity (MEK5; 1.0E-05 M): 114 % of control
Residual activity (MEK5; 1.0E-06 M): 118 % of control
Residual activity (PIM1; 1.0E-05 M): 74 % of control
Residual activity (PIM1; 1.0E-06 M): 88 % of control
Residual activity (CDK3/CycE1; 1.0E-05 M): 80 % of control
Residual activity (CDK3/CycE1; 1.0E-06 M): 90 % of control
Residual activity (MAP3K11; 1.0E-05 M): 118 % of control
Residual activity (MAP3K11; 1.0E-06 M): 109 % of control
Residual activity (CK1gamma2; 1.0E-05 M): 114 % of control
Residual activity (CK1gamma2; 1.0E-06 M): 104 % of control
Residual activity (ERBB4; 1.0E-05 M): 71 % of control
Residual activity (ERBB4; 1.0E-06 M): 97 % of control
Residual activity (DAPK2; 1.0E-05 M): 124 % of control
Residual activity (DAPK2; 1.0E-06 M): 113 % of control
Residual activity (IRAK4; 1.0E-05 M): 100 % of control
Residual activity (IRAK4; 1.0E-06 M): 97 % of control
Residual activity (EPHA6; 1.0E-05 M): 80 % of control
Residual activity (EPHA6; 1.0E-06 M): 110 % of control
inhibition at 10 µM (MAPKAPK3; 10 µM): ≥ 50%
Residual activity (MAPKAPK3; 1.0E-05 M): 50 % of control
Residual activity (MAPKAPK3; 1.0E-06 M): 109 % of control

O=C(Nc1ccc(F)c(Nc2ccc3c(c2)CCCCC3=O)c1)c1cccc(F)c1 [Compound 109]
Residual activity (NIK; 1.0E-05 M): 103 % of control
Residual activity (NIK; 1.0E-06 M): 103 % of control
Residual activity (TTBK1; 1.0E-05 M): 115 % of control
Residual activity (TTBK1; 1.0E-06 M): 101 % of control
Residual activity (PKCeta; 1.0E-05 M): 110 % of control
Residual activity (PKCeta; 1.0E-06 M): 116 % of control
Residual activity (EIF2AK2; 1.0E-05 M): 114 % of control
Residual activity (EIF2AK2; 1.0E-06 M): 94 % of control
Residual activity (MEK5; 1.0E-05 M): 94 % of control
Residual activity (MEK5; 1.0E-06 M): 104 % of control
Residual activity (PIM1; 1.0E-05 M): 70 % of control
Residual activity (PIM1; 1.0E-06 M): 96 % of control
Residual activity (CDK3/CycE1; 1.0E-05 M): 82 % of control
Residual activity (CDK3/CycE1; 1.0E-06 M): 91 % of control
Residual activity (MAP3K11; 1.0E-05 M): 110 % of control
Residual activity (MAP3K11; 1.0E-06 M): 108 % of control
Residual activity (CK1gamma2; 1.0E-05 M): 70 % of control
Residual activity (CK1gamma2; 1.0E-06 M): 84 % of control
Residual activity (ERBB4; 1.0E-05 M): 81 % of control
Residual activity (ERBB4; 1.0E-06 M): 98 % of control
Residual activity (DAPK2; 1.0E-05 M): 133 % of control
Residual activity (DAPK2; 1.0E-06 M): 110 % of control
Residual activity (IRAK4; 1.0E-05 M): 93 % of control
Residual activity (IRAK4; 1.0E-06 M): 92 % of control
Residual activity (EPHA6; 1.0E-05 M): 94 % of control
Residual activity (EPHA6; 1.0E-06 M): 100 % of control
Residual activity (MAPKAPK3; 1.0E-05 M): 65 % of control
Residual activity (MAPKAPK3; 1.0E-06 M): 98 % of control
